# Laboratory results from patent US8895504B2, “Amylin derivatives” (priority 2008, dated 2014).
# *1 amine or outer side, *2 acyl side, *3 side chain or, on linkers, in order; H or OH if unused. Where a SMILES comes first, the peptide text is derived from it. Bridges are numbered along the chain shown (N, C = ends). The star is where a group is joined. C20 diacid = O=C(O)CCCCCCCCCCCCCCCCCCC(=O)*; γGlu = O=C(O)[C@H](CCC(=O)[*:2])N[*:1]
# Target: T1, Amylin 3(a) receptor (human calcitonin receptor (CTa) and RAMP-3) (Homo sapiens, UniProt O60896+P30988)
# T1 construct: expressed in transfected cells; host or cells: BHK570 cells, stably transfected with a CRE-luciferase reporter
# T1 sequence (O60896 24-148): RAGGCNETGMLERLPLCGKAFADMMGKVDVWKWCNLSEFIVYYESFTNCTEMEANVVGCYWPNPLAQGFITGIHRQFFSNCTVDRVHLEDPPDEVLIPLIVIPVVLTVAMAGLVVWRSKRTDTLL
# T1 sequence (P30988 25-474): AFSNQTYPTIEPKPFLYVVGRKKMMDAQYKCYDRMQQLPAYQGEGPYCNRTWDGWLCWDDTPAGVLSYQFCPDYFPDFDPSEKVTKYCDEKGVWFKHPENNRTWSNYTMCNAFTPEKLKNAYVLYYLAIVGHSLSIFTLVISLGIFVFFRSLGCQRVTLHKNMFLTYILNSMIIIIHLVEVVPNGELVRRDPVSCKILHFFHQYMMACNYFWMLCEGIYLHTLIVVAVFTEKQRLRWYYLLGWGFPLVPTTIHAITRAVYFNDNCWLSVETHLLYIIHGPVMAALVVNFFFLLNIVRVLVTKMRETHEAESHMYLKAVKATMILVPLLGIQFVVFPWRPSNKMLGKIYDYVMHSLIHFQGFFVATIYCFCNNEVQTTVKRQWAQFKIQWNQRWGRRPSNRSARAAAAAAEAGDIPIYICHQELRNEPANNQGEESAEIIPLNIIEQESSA
# Test: Luciferase assay (III), BHK Amylin 3(a)//CRE-luc cells
# Format: cell-based
# Conditions: BHK cells with Amylin 3(a) receptor and CRE luciferase reporter, 4 hours incubation; read-out: Potency Luciferase
# Procedure, shortened: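 BHK570 cells stably expressing CTa, RAMP-3 and a CRE-luciferase reporter, seeded at about 20,000 cells/well and grown overnight. Cells were exposed to standard or sample for 4 h at 37° C in phenol red-free DMEM with 10% FBS and 10 mM Hepes, pH 7,4. Luminescence was read after 30 min LucLite at room temperature.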
row,Compound,EC50 [nM]
1,"CC[C@H](C)[C@H](NC(=O)[C@@H]1CCCN1C(=O)CNC(=O)[C@H](Cc1ccccc1)NC(=O)[C@H](CC(N)=O)NC(=O)[C@H](CC(N)=O)NC(=O)[C@H](CO)NC(=O)[C@H](CO)NC(=O)[C@H](Cc1c[nH]cn1)NC(=O)[C@H](CCCNC(=N)N)NC(=O)[C@H](CC(C)C)NC(=O)[C@H](Cc1ccccc1)NC(=O)[C@H](CC(N)=O)NC(=O)[C@H](C)NC(=O)[C@H](CC(C)C)NC(=O)[C@H](CCCNC(=N)N)NC(=O)[C@H](CCC(N)=O)NC(=O)[C@@H](NC(=O)[C@H](C)NC(=O)[C@@H]1CSSC[C@H](NC(=O)[C@H](Cc2c[nH]cn2)NC(=O)CC[C@H](NC(=O)CCCCCCCCCCCCCCCCCCC(=O)O)C(=O)O)C(=O)N[C@@H](CC(N)=O)C(=O)N[C@@H]([C@@H](C)O)C(=O)N[C@@H](C)C(=O)N[C@@H]([C@@H](C)O)C(=O)N1)[C@@H](C)O)C(=O)N[C@@H](CC(C)C)C(=O)N1CCC[C@H]1C(=O)N1CCC[C@H]1C(=O)N[C@H](C(=O)N[C@@H](CC(N)=O)C(=O)N[C@H](C(=O)NCC(=O)N[C@@H](CO)C(=O)N[C@@H](CC(N)=O)C(=O)N[C@H](C(=O)N[C@@H](Cc1ccc(O)cc1)C(N)=O)[C@@H](C)O)C(C)C)[C@@H](C)O [Example 36, N-alpha-[(S)-4-Carboxy-4-(19-carboxynonadecanoylamino)butyryl]-[His1,Arg17]-pramlintide] ({C20 diacid-γGlu}-HCNTATCATQRLANFLRHSSNNFGPILPPTNVGSNTY-NH2; disulfide 2-7)",0.1
2,"CC[C@H](C)[C@H](NC(=O)[C@@H]1CCCN1C(=O)CNC(=O)[C@H](Cc1ccccc1)NC(=O)[C@H](CC(N)=O)NC(=O)[C@H](CC(N)=O)NC(=O)[C@H](CO)NC(=O)[C@H](CO)NC(=O)[C@H](Cc1c[nH]cn1)NC(=O)[C@H](CCCNC(=N)N)NC(=O)[C@H](CC(C)C)NC(=O)[C@H](Cc1ccccc1)NC(=O)[C@H](CC(N)=O)NC(=O)[C@H](C)NC(=O)[C@H](CC(C)C)NC(=O)[C@H](CCCNC(=N)N)NC(=O)[C@H](CCC(N)=O)NC(=O)[C@@H](NC(=O)[C@H](C)NC(=O)[C@@H]1CSSC[C@H](NC(=O)[C@H](CCC(=O)O)NC(=O)[C@H](CCC(=O)O)NC(=O)CC[C@H](NC(=O)CCCCCCCCCCCCCCCCCCC(=O)O)C(=O)O)C(=O)N[C@@H](CC(N)=O)C(=O)N[C@@H]([C@@H](C)O)C(=O)N[C@@H](C)C(=O)N[C@@H]([C@@H](C)O)C(=O)N1)[C@@H](C)O)C(=O)N[C@@H](CC(C)C)C(=O)N1CCC[C@H]1C(=O)N1CCC[C@H]1C(=O)N[C@H](C(=O)N[C@@H](CC(N)=O)C(=O)N[C@H](C(=O)NCC(=O)N[C@@H](CO)C(=O)N[C@@H](CC(N)=O)C(=O)N[C@H](C(=O)N[C@@H](Cc1ccc(O)cc1)C(N)=O)[C@@H](C)O)C(C)C)[C@@H](C)O [Example 49, N-alpha-[(S)-4-Carboxy-4-(19-carboxynonadecanoylamino)butyryl]-Glu-[Glu1,Arg17]-pramlintide] ({C20 diacid-γGlu}-EECNTATCATQRLANFLRHSSNNFGPILPPTNVGSNTY-NH2; disulfide 3-8)",0.3
3,"CC[C@H](C)[C@H](NC(=O)[C@@H]1CCCN1C(=O)CNC(=O)[C@H](Cc1ccccc1)NC(=O)[C@H](CC(N)=O)NC(=O)[C@H](CC(N)=O)NC(=O)[C@H](CO)NC(=O)[C@H](CO)NC(=O)[C@H](Cc1c[nH]cn1)NC(=O)CNC(=O)[C@H](CC(C)C)NC(=O)[C@H](Cc1ccccc1)NC(=O)[C@H](CC(N)=O)NC(=O)[C@H](C)NC(=O)[C@H](CC(C)C)NC(=O)[C@H](CCCNC(=N)N)NC(=O)[C@H](CCC(N)=O)NC(=O)[C@@H](NC(=O)[C@H](C)NC(=O)[C@@H]1CSSC[C@H](NC(=O)CC[C@H](NC(=O)CCCCCCCCCCCCCCCCCCC(=O)O)C(=O)O)C(=O)N[C@@H](CC(N)=O)C(=O)N[C@@H]([C@@H](C)O)C(=O)N[C@@H](C)C(=O)N[C@@H]([C@@H](C)O)C(=O)N1)[C@@H](C)O)C(=O)N[C@@H](CC(C)C)C(=O)N1CCC[C@H]1C(=O)N1CCC[C@H]1C(=O)N[C@H](C(=O)N[C@@H](CC(N)=O)C(=O)N[C@H](C(=O)NCC(=O)N[C@@H](CO)C(=O)N[C@@H](CC(N)=O)C(=O)N[C@H](C(=O)N[C@@H](Cc1ccc(O)cc1)C(N)=O)[C@@H](C)O)C(C)C)[C@@H](C)O [Example 13, N-alpha-[(S)-4-Carboxy-4-(19-carboxynonadecanoylamino)butyryl]-[Gly17]-pramlintide (2-37)] ({C20 diacid-γGlu}-CNTATCATQRLANFLGHSSNNFGPILPPTNVGSNTY-NH2; disulfide 1-6)",0.4
4,"CC[C@H](C)[C@H](NC(=O)[C@@H]1CCCN1C(=O)CNC(=O)[C@H](Cc1ccccc1)NC(=O)[C@H](CC(N)=O)NC(=O)[C@H](CC(N)=O)NC(=O)[C@H](CO)NC(=O)[C@H](CO)NC(=O)[C@H](Cc1c[nH]cn1)NC(=O)[C@H](CCCNC(=N)N)NC(=O)[C@H](CC(C)C)NC(=O)[C@H](Cc1ccccc1)NC(=O)[C@H](CC(N)=O)NC(=O)[C@H](C)NC(=O)[C@H](CC(C)C)NC(=O)[C@H](CCCNC(=N)N)NC(=O)[C@H](CCC(N)=O)NC(=O)[C@@H](NC(=O)[C@H](C)NC(=O)[C@@H]1CSSC[C@H](NC(=O)CC[C@H](NC(=O)CCCCCCCCCCCCCCCCCCC(=O)O)C(=O)O)C(=O)N[C@@H](CC(N)=O)C(=O)N[C@@H]([C@@H](C)O)C(=O)N[C@@H](C)C(=O)N[C@@H]([C@@H](C)O)C(=O)N1)[C@@H](C)O)C(=O)N[C@@H](CC(C)C)C(=O)N1CCC[C@H]1C(=O)N1CCC[C@H]1C(=O)N[C@H](C(=O)N[C@@H](CC(N)=O)C(=O)N[C@H](C(=O)NCC(=O)N[C@@H](CO)C(=O)N[C@@H](CC(N)=O)C(=O)N[C@H](C(=O)N[C@@H](Cc1ccc(O)cc1)C(N)=O)[C@@H](C)O)C(C)C)[C@@H](C)O [Example 14, N-alpha-[(S)-4-Carboxy-4-(19-carboxynonadecanoylamino)butyryl]-[Arg17]-pramlintide (2-37)] ({C20 diacid-γGlu}-CNTATCATQRLANFLRHSSNNFGPILPPTNVGSNTY-NH2; disulfide 1-6)",0.2

# These reach a lower EC50. Values come first.
row,EC50 [nM],Compound
1,0.06,"CC[C@H](C)[C@H](NC(=O)[C@@H]1CCCN1C(=O)CNC(=O)[C@H](Cc1ccccc1)NC(=O)[C@H](CC(N)=O)NC(=O)[C@H](CC(N)=O)NC(=O)[C@H](CO)NC(=O)[C@H](CO)NC(=O)[C@H](Cc1c[nH]cn1)NC(=O)[C@H](Cc1c[nH]cn1)NC(=O)[C@H](CC(C)C)NC(=O)[C@H](Cc1ccccc1)NC(=O)[C@H](CC(N)=O)NC(=O)[C@H](C)NC(=O)[C@H](CC(C)C)NC(=O)[C@H](CCCNC(=N)N)NC(=O)[C@H](CCC(N)=O)NC(=O)[C@@H](NC(=O)[C@H](C)NC(=O)[C@@H]1CSSC[C@H](NC(=O)[C@H](CCCCN)NC(=O)[C@H](CCCNC(=N)N)NC(=O)[C@H](CCCCN)NC(=O)[C@H](CCC(=O)O)NC(=O)CCCCCCCCCCCCCCCCCCC(=O)O)C(=O)N[C@@H](CC(N)=O)C(=O)N[C@@H]([C@@H](C)O)C(=O)N[C@@H](C)C(=O)N[C@@H]([C@@H](C)O)C(=O)N1)[C@@H](C)O)C(=O)N[C@@H](CC(C)C)C(=O)N1CCC[C@H]1C(=O)N1CCC[C@H]1C(=O)N[C@H](C(=O)N[C@@H](CC(N)=O)C(=O)N[C@H](C(=O)NCC(=O)N[C@@H](CO)C(=O)N[C@@H](CC(N)=O)C(=O)N[C@H](C(=O)N[C@@H](Cc1ccc(O)cc1)C(N)=O)[C@@H](C)O)C(C)C)[C@@H](C)O [Example 9, N-alpha-[19-carboxynonadecanoyl]-Glu-Lys-Arg-[His17]-pramlintide] ({C20 diacid}-EKRKCNTATCATQRLANFLHHSSNNFGPILPPTNVGSNTY-NH2; disulfide 5-10)"
2,0.08,"CC[C@H](C)[C@H](NC(=O)[C@@H]1CCCN1C(=O)CNC(=O)[C@H](Cc1ccccc1)NC(=O)[C@H](CC(N)=O)NC(=O)[C@H](CC(N)=O)NC(=O)[C@H](CO)NC(=O)[C@H](CO)NC(=O)[C@H](Cc1c[nH]cn1)NC(=O)[C@H](Cc1c[nH]cn1)NC(=O)[C@H](CC(C)C)NC(=O)[C@H](Cc1ccccc1)NC(=O)[C@H](CC(N)=O)NC(=O)[C@H](C)NC(=O)[C@H](CC(C)C)NC(=O)[C@H](CCCNC(=N)N)NC(=O)[C@H](CCC(N)=O)NC(=O)[C@@H](NC(=O)[C@H](C)NC(=O)[C@@H]1CSSC[C@H](NC(=O)[C@H](CCCCN)NC(=O)[C@H](CCCNC(=N)N)NC(=O)CC[C@H](NC(=O)CCCCCCCCCCCCCCCCCCC(=O)O)C(=O)O)C(=O)N[C@@H](CC(N)=O)C(=O)N[C@@H]([C@@H](C)O)C(=O)N[C@@H](C)C(=O)N[C@@H]([C@@H](C)O)C(=O)N1)[C@@H](C)O)C(=O)N[C@@H](CC(C)C)C(=O)N1CCC[C@H]1C(=O)N1CCC[C@H]1C(=O)N[C@H](C(=O)N[C@@H](CC(N)=O)C(=O)N[C@H](C(=O)NCC(=O)N[C@@H](CO)C(=O)N[C@@H](CC(N)=O)C(=O)N[C@H](C(=O)N[C@@H](Cc1ccc(O)cc1)C(N)=O)[C@@H](C)O)C(C)C)[C@@H](C)O [Example 17, N-alpha-[(S)-4-Carboxy-4-(19-carboxynonadecanoylamino)butyryl]-Arg-[His17]-pramlintide] ({C20 diacid-γGlu}-RKCNTATCATQRLANFLHHSSNNFGPILPPTNVGSNTY-NH2; disulfide 3-8)"
